The source of these data is patent US12252524B2, “GIP/GLP1 co-agonist compounds” (Eli Lilly and Company, priority 2018, dated 2025).

The target of one assay is T1, human Gcg receptor (Homo sapiens, UniProt P47871).
T1 construct: expressed in transfected cells; crude membranes
Description: [125I]-Glucagon binding (SPA), human Gcg receptor. Particulars: read-out: hGLcgR Ki, nM (SEM, n). An outline of the steps:
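Cell pellets were lysed in hypotonic Tris buffer, pH 7.5, homogenized, and spun at low then high speed to give crude membranes. Ki was derived from the fitted IC50.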

In another assay the target is T2, human GIP receptor (Homo sapiens, UniProt P48546).
T2 construct: expressed in transfected cells; crude membranes
T2 sequence (P48546 22-466): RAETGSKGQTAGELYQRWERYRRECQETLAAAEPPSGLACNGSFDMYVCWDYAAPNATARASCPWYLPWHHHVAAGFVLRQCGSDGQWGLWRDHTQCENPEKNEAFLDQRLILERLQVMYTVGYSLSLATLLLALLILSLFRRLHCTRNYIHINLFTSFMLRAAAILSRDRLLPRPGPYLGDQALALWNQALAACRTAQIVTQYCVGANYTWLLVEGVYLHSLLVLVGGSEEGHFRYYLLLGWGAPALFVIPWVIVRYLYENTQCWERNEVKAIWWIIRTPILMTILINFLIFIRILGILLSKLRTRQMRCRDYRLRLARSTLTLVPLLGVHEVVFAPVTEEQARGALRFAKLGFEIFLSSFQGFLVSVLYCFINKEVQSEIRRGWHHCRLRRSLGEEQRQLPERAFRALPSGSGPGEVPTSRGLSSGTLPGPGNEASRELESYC
The experiment in a line: [125I]-GIP binding (SPA), human GIP receptor. Conditions: read-out: hGIPR Ki, nM (SEM, n).

Assay [1] has as its target human GLP-1 receptor (GLP-1R) (Homo sapiens, UniProt P43220). Description: cAMP pharmacological functional assay in presence of casein, hGLP-1R. It is filed as cell-based. Particulars: HEK293 cells expressing hGLP-1R, 0.1% Casein, geometric mean; read-out: hGLP1R cAMP Rel EC50 nM (SEM, n).
Assay [2] deals with T3, gastric inhibitory peptide receptor (GIPR) (Homo sapiens, UniProt P48546).
T3 sequence (P48546 22-466): T2 sequence (P48546 22-466)
Description: cAMP pharmacological functional assay in presence of casein, hGIPR. It is filed as cell-based. Particulars: HEK293 cells expressing hGIPR, 0.1% Casein, geometric mean; read-out: hGIPR cAMP Rel EC50 nM (SEM, n).

The target in another assay is human GLP-1R (Homo sapiens, UniProt P43220). The experiment in a line: [125I]-GLP-1 binding (SPA), human GLP-1 receptor. Conditions: read-out: hGLP1R Ki, (nM) (SEM, n). Also on record: expressed in transfected cells; crude membranes. An outline of the steps:
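Membranes: hypotonic lysis (50 mM Tris HCl, pH 7.5, protease inhibitors), Potter-Elvehjem homogenization, high-speed pellet (35000×g 1 h or 25000×g 30 min, 4° C.). Buffer: 25 mM HEPES pH 7.4, 2.5 mM CaCl2, 1 mM MgCl2. Four-parameter IC50 fit; Ki as geometric mean ± SEM.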

SMILES strings stand for the structures. Numbered stars: 1 amine (or outer) side, 2 acyl side, 3 side chain; on linkers, the order of the positions; unused ones are H or OH. Square brackets hold non-standard residues; d marks the D form. Side chains are listed from the residue outwards. Peptide text beside a SMILES is read from it. * marks the point of attachment. C18 diacid = O=C(O)CCCCCCCCCCCCCCCCC(=O)*; γGlu = O=C(O)[C@H](CCC(=O)[*:2])N[*:1]; AEEA = NCCOCCOCC(=O)O; Aib = CC(C)(N)C(=O)O

T1 sequence (P47871 26-477): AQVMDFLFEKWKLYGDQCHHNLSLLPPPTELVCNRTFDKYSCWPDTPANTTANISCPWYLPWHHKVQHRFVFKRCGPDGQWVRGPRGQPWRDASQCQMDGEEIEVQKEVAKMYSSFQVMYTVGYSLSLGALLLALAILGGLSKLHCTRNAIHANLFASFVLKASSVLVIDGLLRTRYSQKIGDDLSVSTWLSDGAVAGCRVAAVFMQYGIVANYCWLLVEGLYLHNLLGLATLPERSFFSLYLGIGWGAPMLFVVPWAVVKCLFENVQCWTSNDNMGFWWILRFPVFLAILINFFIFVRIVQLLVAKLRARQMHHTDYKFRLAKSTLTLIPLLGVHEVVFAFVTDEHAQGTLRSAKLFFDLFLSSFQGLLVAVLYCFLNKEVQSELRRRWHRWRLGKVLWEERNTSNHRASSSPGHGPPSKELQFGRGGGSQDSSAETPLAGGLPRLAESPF
Chain of human GLP-1R (P43220 24-463): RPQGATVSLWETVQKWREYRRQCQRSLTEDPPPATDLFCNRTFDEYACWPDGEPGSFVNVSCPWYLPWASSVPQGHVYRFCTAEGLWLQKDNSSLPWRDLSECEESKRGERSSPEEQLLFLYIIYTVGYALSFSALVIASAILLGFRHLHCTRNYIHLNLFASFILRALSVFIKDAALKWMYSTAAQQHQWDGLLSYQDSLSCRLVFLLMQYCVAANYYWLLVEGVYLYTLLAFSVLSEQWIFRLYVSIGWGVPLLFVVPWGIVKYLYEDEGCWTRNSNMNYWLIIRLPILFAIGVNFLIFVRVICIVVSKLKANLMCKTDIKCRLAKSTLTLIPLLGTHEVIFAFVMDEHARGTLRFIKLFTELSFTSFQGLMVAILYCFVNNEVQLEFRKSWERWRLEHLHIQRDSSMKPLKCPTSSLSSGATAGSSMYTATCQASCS
Chain of human GLP-1 receptor (GLP-1R) (P43220 24-463): as above

Take `CC[C@H](C)[C@H](NC(=O)[C@H](CC(C)C)NC(=O)[C@H](Cc1ccc(O)cc1)NC(=O)[C@H](CCC(=O)O)NC(=O)[C@@H](NC(=O)[C@H](Cc1ccccc1)NC(=O)[C@H](C)NC(=O)C(C)(C)NC(=O)[C@H](CCC(N)=O)NC(=O)[C@H](C)NC(=O)[C@H](CCCCNC(=O)COCCOCCNC(=O)COCCOCCNC(=O)CC[C@H](NC(=O)CCCCCCCCCCCCCCCCC(=O)O)C(=O)O)NC(=O)[C@H](CCC(=O)O)NC(=O)[C@H](CC(=O)O)NC(=O)[C@H](CC(C)C)NC(=O)[C@H](CC(C)C)NC(=O)[C@@H](NC(=O)[C@H](CO)NC(=O)[C@H](Cc1ccc(O)cc1)NC(=O)[C@H](CC(=O)O)NC(=O)[C@H](CO)NC(=O)[C@@H](NC(=O)[C@H](Cc1ccccc1)NC(=O)[C@@H](NC(=O)CNC(=O)[C@H](CCC(=O)O)NC(=O)C(C)(C)NC(=O)[C@@H](N)Cc1ccc(O)cc1)[C@@H](C)O)[C@@H](C)O)[C@@H](C)CC)[C@@H](C)CC)C(=O)N[C@@H](CCC(=O)O)C(=O)NCC(=O)NCC(=O)N1CCC[C@H]1C(=O)N[C@@H](CO)C(=O)N[C@@H](CO)C(=O)NCC(N)=O` [Example 268] (H-Y[Aib]EGTFTSDYSILLDEK([AEEA-AEEA-γGlu-C18 diacid])AQ[Aib]AFIEYLIEGGPSSG-NH2): the Ki (as a rule, the equilibrium dissociation constant of an inhibitor or competing ligand from its target) is > 1190 nM on human Gcg receptor, 0.0814 nM on human GIP receptor and 3.98 nM at human GLP-1R. For the same compound, the concentration for a half-maximal effect (EC50) (as a rule, the concentration at which the effect is half-maximal) is 0.0572 nM in assay [1] and 0.239 nM in assay [2].

Consider `CC[C@H](C)[C@H](NC(=O)[C@H](CC(C)C)NC(=O)[C@H](Cc1ccc(O)cc1)NC(=O)[C@H](CCC(=O)O)NC(=O)[C@@H](NC(=O)[C@H](Cc1ccccc1)NC(=O)[C@H](C)NC(=O)C(C)(C)NC(=O)[C@H](CCC(N)=O)NC(=O)[C@H](C)NC(=O)[C@H](CCCCNC(=O)COCCOCCNC(=O)COCCOCCNC(=O)CC[C@H](NC(=O)CCCCCCCCCCCCCCCCC(=O)O)C(=O)O)NC(=O)[C@H](CCC(=O)O)NC(=O)[C@H](CC(=O)O)NC(=O)[C@H](CC(C)C)NC(=O)[C@H](CC(C)C)NC(=O)[C@@H](NC(=O)[C@H](CO)NC(=O)[C@H](Cc1ccc(O)cc1)NC(=O)[C@H](CC(=O)O)NC(=O)[C@H](CO)NC(=O)[C@@H](NC(=O)[C@H](Cc1ccccc1)NC(=O)[C@@H](NC(=O)CNC(=O)[C@H](CCC(=O)O)NC(=O)C(C)(C)NC(=O)[C@@H](N)Cc1ccc(O)cc1)[C@@H](C)O)[C@@H](C)O)[C@@H](C)CC)[C@@H](C)CC)C(=O)N[C@@H](CCC(=O)O)C(=O)NCC(=O)NCC(N)=O` [Example 269] (H-Y[Aib]EGTFTSDYSILLDEK([AEEA-AEEA-γGlu-C18 diacid])AQ[Aib]AFIEYLIEGG-NH2), for which the inhibition constant Ki at human Gcg receptor was > 1100 nM; on human GIP receptor, 0.152 nM; on human GLP-1R, 7.1 nM. Also, the results for the 50% effective concentration (EC50) in assay [1] and in assay [2] were 0.0595 nM and 0.257 nM, respectively.

Consider `CC[C@H](C)[C@H](NC(=O)[C@H](CC(C)C)NC(=O)[C@H](Cc1ccc(O)cc1)NC(=O)[C@H](CCC(=O)O)NC(=O)[C@@H](NC(=O)[C@H](Cc1ccccc1)NC(=O)[C@H](CCC(=O)O)NC(=O)C(C)(C)NC(=O)[C@H](CCC(N)=O)NC(=O)[C@H](C)NC(=O)[C@H](CCCCNC(=O)COCCOCCNC(=O)COCCOCCNC(=O)CC[C@H](NC(=O)CCCCCCCCCCCCCCCCC(=O)O)C(=O)O)NC(=O)[C@H](CCCCN)NC(=O)[C@H](CC(=O)O)NC(=O)[C@H](CC(C)C)NC(=O)[C@H](CC(C)C)NC(=O)[C@@H](NC(=O)[C@H](CO)NC(=O)[C@H](Cc1ccc(O)cc1)NC(=O)[C@H](CC(=O)O)NC(=O)[C@H](CO)NC(=O)[C@@H](NC(=O)[C@H](Cc1ccccc1)NC(=O)[C@@H](NC(=O)CNC(=O)[C@H](CCC(=O)O)NC(=O)C(C)(C)NC(=O)[C@@H](N)Cc1ccc(O)cc1)[C@@H](C)O)[C@@H](C)O)[C@@H](C)CC)[C@@H](C)CC)C(=O)N[C@@H](CCC(=O)O)C(=O)NCC(=O)NCC(=O)N1CCC[C@H]1C(=O)N[C@@H](CO)C(=O)N[C@@H](CO)C(=O)NCC(N)=O` [Example 270] (H-Y[Aib]EGTFTSDYSILLDKK([AEEA-AEEA-γGlu-C18 diacid])AQ[Aib]EFIEYLIEGGPSSG-NH2; N-terminus assumed), for which the Ki on human Gcg receptor was > 1190 nM; on human GIP receptor it was 0.117 nM; at human GLP-1R, 8.27 nM. The results for the half-maximal effective concentration (EC50) in assay [1] and in assay [2] were 0.128 nM and 0.328 nM, respectively.

With `CC[C@H](C)[C@H](NC(=O)[C@H](CC(C)C)NC(=O)[C@H](Cc1ccc(O)cc1)NC(=O)[C@H](CCC(=O)O)NC(=O)[C@@H](NC(=O)[C@H](Cc1ccccc1)NC(=O)[C@H](CCC(=O)O)NC(=O)C(C)(C)NC(=O)[C@H](CCC(N)=O)NC(=O)[C@H](C)NC(=O)[C@H](CCCCNC(=O)COCCOCCNC(=O)COCCOCCNC(=O)CC[C@H](NC(=O)CCCCCCCCCCCCCCCCC(=O)O)C(=O)O)NC(=O)[C@H](CCCCN)NC(=O)[C@H](CC(=O)O)NC(=O)[C@H](CC(C)C)NC(=O)[C@H](CC(C)C)NC(=O)[C@@H](NC(=O)[C@H](CO)NC(=O)[C@H](Cc1ccc(O)cc1)NC(=O)[C@H](CC(=O)O)NC(=O)[C@H](CO)NC(=O)[C@@H](NC(=O)[C@H](Cc1ccccc1)NC(=O)[C@@H](NC(=O)CNC(=O)[C@H](CCC(=O)O)NC(=O)C(C)(C)NC(=O)[C@@H](N)Cc1ccc(O)cc1)[C@@H](C)O)[C@@H](C)O)[C@@H](C)CC)[C@@H](C)CC)C(=O)N[C@@H](CCC(=O)O)C(=O)NCC(=O)NCC(N)=O` [Example 271] (H-Y[Aib]EGTFTSDYSILLDKK([AEEA-AEEA-γGlu-C18 diacid])AQ[Aib]EFIEYLIEGG-NH2), the inhibition constant Ki was > 1150 nM on human Gcg receptor, 0.107 nM on human GIP receptor and 5.09 nM at human GLP-1R. Further, the results for the 50% effective concentration (EC50) in assay [1] and in assay [2] were 0.0352 nM and 0.334 nM, respectively.

Consider `CC[C@H](C)[C@H](NC(=O)[C@H](CC(C)C)NC(=O)[C@H](Cc1ccc(O)cc1)NC(=O)[C@H](CCC(=O)O)NC(=O)[C@@H](NC(=O)[C@H](Cc1ccccc1)NC(=O)[C@H](C)NC(=O)C(C)(C)NC(=O)[C@H](CCC(N)=O)NC(=O)[C@H](C)NC(=O)[C@H](CCCCNC(=O)COCCOCCNC(=O)COCCOCCNC(=O)CC[C@H](NC(=O)CCCCCCCCCCCCCCCCC(=O)O)C(=O)O)NC(=O)[C@H](CCCCN)NC(=O)[C@H](CC(=O)O)NC(=O)[C@H](CC(C)C)NC(=O)[C@H](CC(C)C)NC(=O)[C@@H](NC(=O)[C@H](CO)NC(=O)[C@H](Cc1ccc(O)cc1)NC(=O)[C@H](CC(=O)O)NC(=O)[C@H](CO)NC(=O)[C@@H](NC(=O)[C@H](Cc1ccccc1)NC(=O)[C@@H](NC(=O)CNC(=O)[C@H](CCC(=O)O)NC(=O)C(C)(C)NC(=O)[C@@H](N)Cc1ccc(O)cc1)[C@@H](C)O)[C@@H](C)O)[C@@H](C)CC)[C@@H](C)CC)C(=O)N[C@@H](C)C(=O)NCC(=O)NCC(N)=O` [Example 273] (H-Y[Aib]EGTFTSDYSILLDKK([AEEA-AEEA-γGlu-C18 diacid])AQ[Aib]AFIEYLIAGG-NH2), for which the inhibition constant Ki on human Gcg receptor came out at 724 nM; at human GIP receptor it was 0.0698 nM; at human GLP-1R, 1.13 nM. Besides, the EC50 is 0.0352 nM in assay [1] and 0.079 nM in assay [2].

For `CC[C@H](C)[C@H](NC(=O)[C@H](CC(C)C)NC(=O)[C@H](Cc1ccc(O)cc1)NC(=O)[C@H](CCC(=O)O)NC(=O)[C@@H](NC(=O)[C@H](Cc1ccccc1)NC(=O)[C@H](C)NC(=O)[C@H](CCC(N)=O)NC(=O)[C@H](CCC(N)=O)NC(=O)[C@H](C)NC(=O)[C@H](CCCCNC(=O)COCCOCCNC(=O)COCCOCCNC(=O)CC[C@H](NC(=O)CCCCCCCCCCCCCCCCC(=O)O)C(=O)O)NC(=O)[C@H](CCCCN)NC(=O)[C@H](CC(=O)O)NC(=O)[C@H](CC(C)C)NC(=O)[C@H](CC(C)C)NC(=O)[C@@H](NC(=O)[C@H](CO)NC(=O)[C@H](Cc1ccc(O)cc1)NC(=O)[C@H](CC(=O)O)NC(=O)[C@H](CO)NC(=O)[C@@H](NC(=O)[C@H](Cc1ccccc1)NC(=O)[C@@H](NC(=O)CNC(=O)[C@H](CCC(=O)O)NC(=O)C(C)(C)NC(=O)[C@@H](N)Cc1ccc(O)cc1)[C@@H](C)O)[C@@H](C)O)[C@@H](C)CC)[C@@H](C)CC)C(=O)N[C@@H](CCC(=O)O)C(=O)NCC(=O)NCC(N)=O` [Example 294] (H-Y[Aib]EGTFTSDYSILLDKK([AEEA-AEEA-γGlu-C18 diacid])AQQAFIEYLIEGG-NH2), the Ki worked out at 629 nM on human Gcg receptor, 0.205 nM on human GIP receptor and 2.92 nM at human GLP-1R. The values for the half-maximal effective concentration (EC50) in assay [1] and in assay [2] were 0.185 nM and 0.183 nM, respectively.
